The text below walks through data of patent US20240109881A1, “Heteroaryl Compounds as Ligand Directed Degraders of IRAK4” (Bristol-Myers Squibb Company, priority 2022, published 2024).

The structures appear in SMILES notation.

As a reminder, the EC50 is the concentration that produces a half-maximal response. Low readings indicate higher potency in that assay, high ones lower potency in that assay.

The target in the assay is T1, IRAK4 (Homo sapiens, UniProt Q9NWZ3).
T1 construct: endogenous in cells; host or cells: THP-1 cells
T1 sequence (Q9NWZ3 1-460): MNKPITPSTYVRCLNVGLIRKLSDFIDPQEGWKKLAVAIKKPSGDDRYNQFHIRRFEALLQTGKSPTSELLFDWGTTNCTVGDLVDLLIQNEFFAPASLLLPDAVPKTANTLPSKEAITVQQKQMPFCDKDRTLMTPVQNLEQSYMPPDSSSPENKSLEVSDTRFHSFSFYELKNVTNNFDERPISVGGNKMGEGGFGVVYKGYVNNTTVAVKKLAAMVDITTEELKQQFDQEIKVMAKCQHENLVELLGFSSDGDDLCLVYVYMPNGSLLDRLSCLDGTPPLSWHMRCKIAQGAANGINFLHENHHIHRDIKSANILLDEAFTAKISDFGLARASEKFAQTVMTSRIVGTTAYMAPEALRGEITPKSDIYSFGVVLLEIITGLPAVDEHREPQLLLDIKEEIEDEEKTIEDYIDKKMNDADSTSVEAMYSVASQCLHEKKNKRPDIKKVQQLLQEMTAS
Kind of assay: ALE THP1 HTRF (Advanced Lipoxidation End Product THP1 Homogeneous Time Resolved Fluorescence). Format: cell-based. As to conditions: THP1 cells. How it is done: For Homogenous Time Resolved Fluorescence (HTRF) assays, a Cisbio HTRF kit was used, which included: Lysis Buffer #1 4×, Blocking Reagent #3 100×, 20× Antibody 1 (Anti-IRAK4 d2), 20× Antibody 2 (Anti-IRAK4 k), and Detection Buffer.
4× Lysis Buffer was stored at 4° C. For use as 1× Lysis buffer, the 4× solution was diluted with de-ionized water (distilled water, Gibco Cat. #15230279) and 100× Blocking Reagent in a 1:3:0.04 volume ratio.
20× Antibody Solution aliquots were stored in −80° C. and the Detection Buffer was stored in 4° C. For use as a 1× Antibody Solution, the 20× Antibody Solution aliquot was diluted with Detection Buffer in a 1:19 volume ratio.
Cells were lysed at room temperature for 45 min with shaking. A BCA protein assay was performed and normalization was conducted to the desired total protein concentration with 1× lysis buffer. Next, 1× Antibody Solutions were prepared by adding 380 μL Detection Buffer to 20 μL 20× Antibody Solution aliquots and mixing well. 1× Antibody Solutions were combined 1:1 and briefly vortexed. For control wells, 20 μL 1× anti IRAK4-k Antibody Solution was saved. The 384-well plate (ProxiPlate-384 Plus, Perkin Elmer Cat. #6008289) was loaded by adding 4 μL of the mixed Antibody Solution to empty wells using a single channel repeater. Using a multi-channel repeater, 16 μL lysate was added per well, and any bubbles that were formed were popped with 20 μL pipette tips and Kimwipe edges. In column 10, triplicates of each control was prepared. In wells A10, B10, and C10, buffer control was prepared by adding 16 μL Lysis Buffer and 4 μL Detection Buffer. In wells D10, E10, and F10, cryptate control was prepared by adding 16 μL Lysis Buffer, 2 μL Detection Buffer, and 2 μL 1× anti IRAK4-k Antibody Solution. In wells G10, H10, and I10, a negative control was prepared by adding 16 μL Lysis Buffer and 4 μL mixed Antibody Solution. The plate was sealed with a clear seal and covered with an aluminum lid. The plate was spun down at 800 g for 5 min and incubated in the dark at room temperature overnight. The next day, the plate was spun down at 800 g for 5 min. The samples were analyzed by a plate reader (Envision, PerkinElmer) using the Desnor 384 HTRF program.
Take `N#Cc1cnc2c(cnn2-c2cc(NC3CCCC3)c(C(=O)N[C@H]3CC[C@H](CN4CCN(c5ccc6c(c5)C(=O)N(C5CCC(=O)NC5=O)C6)CC4)CC3)cn2)c1` (some centres unmarked) [P-24]: the “ALE THP1 HTRF YMIN” value was 35.3% and the EC50 stood at 0.324 µM.

As to `CC1(Nc2cc(-n3ncc4cc(C#N)cnc43)ncc2-n2cc([C@H]3CC[C@H](CCN4CCN(c5ccc(C6CCC(=O)NC6=O)cc5)CC4)CC3)nn2)CC1` (some centres unmarked) [P-140], the “ALE THP1 HTRF YMIN” value was 6.4% and the EC50 was found to be 0.03 µM.

As to `C[C@H]1CN(c2ccc3c(c2)C(=O)N(C2CCC(=O)NC2=O)C3=O)CCN1C(=O)C1CCC(NC(=O)c2cnc(Nc3ccc4ncsc4c3)cc2NC2CCCC2)CC1` (some centres unmarked) [P-8], the “ALE THP1 HTRF YMIN” value was 40.8% and it took 0.027 µM to reach a half-maximal effect (EC50).

Regarding `N#Cc1cnc2c(cnn2-c2cc(Nc3cnn(CC(F)(F)F)c3)c(C(=O)NC3CCC(CCN4CCN(c5ccc(C6CCC(=O)NC6=O)cc5)CC4)CC3)cn2)c1` (centres unmarked) [P-70], the “ALE THP1 HTRF YMIN” value is recorded as 8.2% and the EC50 was 0.003 µM.

On to `CC(C)Nc1cc(Nc2ccc(C#N)cc2Cl)ncc1C(=O)N[C@H]1CC[C@H](CCN2CCN(c3ccc(C4CCC(=O)NC4=O)cc3)CC2)CC1` (some centres unmarked) [P-134], for which the “ALE THP1 HTRF YMIN” value was 20.9% and a half-maximal effect (EC50) was put at 0.094 µM.

As for `N#Cc1cnc2c(cnn2-c2cc(NC3CC3)c(C(=O)N[C@H]3CC[C@H](CCN4CCC(c5ccc(C6(F)CCC(=O)NC6=O)cc5)CC4)CC3)cn2)c1` (single isomer, unassigned) [P-125], the “ALE THP1 HTRF YMIN” value came to 9.8% and the EC50 is 0.01 µM.

For the compound `N#Cc1cnc2c(cnn2-c2cc(NC3CCCC3)c(C(=O)NC3CCC(C(=O)N4CCN(c5ccc6c(c5)C(=O)N(C5CCC(=O)NC5=O)C6)CC4)CC3)cn2)c1` (centres unmarked) [P-10], the “ALE THP1 HTRF YMIN” value was determined as 34.8% and the EC50 was determined as 0.087 µM.

Turning to `O=C1CCC(c2ccc(N3CCN(CC[C@H]4CC[C@H](NC(=O)c5cnc(-n6ncc7cncnc76)cc5NC5CC5)CC4)CC3)cc2)C(=O)N1` (some centres unmarked) [P-117], the “ALE THP1 HTRF YMIN” value stood at 13.6% and the midpoint of the response, the EC50, lay at 0.033 µM.

`N#Cc1cnc2c(cnn2-c2cc(NC3CCCC3)c(-c3cn([C@H]4CC[C@H](CN5CCN(CC(=O)Nc6ccc(C7CCC(=O)NC7=O)cc6)CC5)CC4)nn3)cn2)c1` (some centres unmarked) [P-40, 2-(4-(((1r,4r)-4-(4-(6-(5-Cyano-1H-pyrazolo[3,4-b]pyridin-1-yl)-4-(cyclopentylamino)pyridin-3-yl)-1H-1,2,3-triazol-1-yl)cyclohexyl)methyl)piperazin-1-yl)-N-(4-(2,6-dioxopiperidin-3-yl)phenyl)acetamide]: the “ALE THP1 HTRF YMIN” value amounted to 20.0% and the EC50 amounted to 0.276 µM.

As for `N#Cc1cnc2c(cnn2-c2cc(NCC(F)(F)F)c(C(=O)N[C@H]3CC[C@H](CCN4CCN(c5ccc(C6CCC(=O)NC6=O)cc5)CC4)CC3)cn2)c1` (some centres unmarked) [P-112], the “ALE THP1 HTRF YMIN” value is listed as 8.7% and the EC50 came out at 0.023 µM.

As for `O=C1CCC(c2ccc(NCC3CCN(C(=O)C4CCC(NC(=O)c5cnc(Nc6ccc7ncsc7c6)cc5NC5CCCC5)CC4)CC3)cc2)C(=O)N1` (centres unmarked) [P-11], the “ALE THP1 HTRF YMIN” value is recorded as 47.5% and a half-maximal effect (EC50) was put at 0.001 µM.

As to `N#Cc1cnc2c(cnn2-c2cc(NC3CCCC3)c(-c3cn([C@H]4CC[C@H](CN5CCC(CNc6ccc(C7CCC(=O)NC7=O)cc6)CC5)CC4)nn3)cn2)c1` (some centres unmarked) [P-44], the “ALE THP1 HTRF YMIN” value is recorded as 38.8% and the EC50 amounted to 0.172 µM.

For `N#Cc1cnc2c(ccn2-c2cc(NC3CC3)c(C(=O)NC3CCC(CCN4CCN(c5ccc(C6CCC(=O)NC6=O)cc5)CC4)CC3)cn2)c1` (centres unmarked) [P-49], the “ALE THP1 HTRF YMIN” value was 10.9% and a half-maximal response (EC50) required 0.021 µM.

`N#Cc1cnc2c(cnn2-c2cc(NC3CCCC3)c(C(=O)NC3CCC(C(=O)Nc4ccc(C(=O)Nc5ccc(C6CCC(=O)NC6=O)cc5)cc4)CC3)cn2)c1` (centres unmarked) [P-20]: the “ALE THP1 HTRF YMIN” value is given as 30.9% and a half-maximal response (EC50) required 1.63 µM.

As to `N#Cc1cnc2c(cnn2-c2cc(NCC3CC3)c(C(=O)N[C@H]3CC[C@H](CCN4CCN(c5ccc(C6CCC(=O)NC6=O)cc5)CC4)CC3)cn2)c1` (some centres unmarked) [P-105], the “ALE THP1 HTRF YMIN” value is 11.5% and the EC50 came to 0.076 µM.

For the compound `CC1(c2ccc(N3CCN(CCC4CCC(NC(=O)c5cnc(-n6ncc7cc(C#N)cnc76)cc5NC5CC5)CC4)CC3)cc2)CCC(=O)NC1=O` (single isomer, unassigned) [P-94], the “ALE THP1 HTRF YMIN” value is on record as 7.4% and the response was half-maximal at 0.011 µM (EC50).

Take `N#Cc1cnc2c(cnn2-c2cc(NC3CC3)c(C(=O)NC3CCC(CCN4CCN(c5ccc(C6CCC(=O)NC6=O)cc5)CC4)CC3)cn2)c1` (centres unmarked) [P-51]: the “ALE THP1 HTRF YMIN” value turned out to be 7.9% and the EC50 came to 0.009 µM.

For the compound `O=C1CCC(c2ccc(N3CCN(CC[C@H]4CC[C@H](NC(=O)c5cnc(Nc6ccc7[nH]c(=O)sc7c6)cc5NC5CC5)CC4)CC3)cc2)C(=O)N1` (some centres unmarked) [P-141], the “ALE THP1 HTRF YMIN” value worked out at 6.1% and the EC50 was less than 0.001 µM.

For the compound `N#Cc1cnc2c(cnn2-c2cc(NC3CC3)c(C(=O)NC3CCC(CCN4CCN(c5ccc([C@H]6CCC(=O)NC6=O)cc5)CC4)CC3)cn2)c1` (some centres unmarked) [P-95], the “ALE THP1 HTRF YMIN” value turned out to be 9.9% and the response was half-maximal at 0.015 µM (EC50).

For the compound `N#Cc1cnc2c(cnn2-c2cc(NC3CCCC3)c(C(=O)N[C@H]3CC[C@H](CN4CCC(COc5ccc(C6CCC(=O)NC6=O)cc5)CC4)CC3)cn2)c1` (some centres unmarked) [P-69], the “ALE THP1 HTRF YMIN” value came out at 15.4% and the EC50 was 0.417 µM.

Take `CN(c1ccc2c(c1)C(=O)N(C1CCC(=O)NC1=O)C2=O)C1CCN(C[C@H]2CC[C@H](NC(=O)c3cnc(-n4ncc5cc(C#N)cnc54)cc3NC3CCCC3)CC2)CC1` (some centres unmarked) [P-38]: the “ALE THP1 HTRF YMIN” value turned out to be 24.3% and a half-maximal response (EC50) required 0.119 µM.

As to `N#Cc1cnc2c(cnn2-c2cc(NC3CCCC3)c(C(=O)NC3CCC(O)(CN4CCN(c5ccc6c(c5)C(=O)N(C5CCC(=O)NC5=O)C6=O)CC4)CC3)cn2)c1` (centres unmarked) [P-30, 6-(5-cyano-1H-pyrazolo[3,4-b]pyridin-1-yl)-4-(cyclopentylamino)-N-((1s,4s)-4-((4-(2-(2,6-dioxopiperidin-3-yl)-1,3-dioxoisoindolin-5-yl)piperazin-1-yl)methyl)-4-hydroxycyclohexyl)nicotinamide], the “ALE THP1 HTRF YMIN” value worked out at 44.1% and the EC50 amounted to 3.32 µM.

As for `N#Cc1cnc2c(cnn2-c2cc(NC3CC3)c(C(=O)N[C@H]3CC[C@H](CCN4CC5(C4)CN(c4ccc(C6CCC(=O)NC6=O)cc4)C5)CC3)cn2)c1` (some centres unmarked) [P-124], the “ALE THP1 HTRF YMIN” value was 19.2% and the EC50 came out at 0.046 µM.

For `CS(=O)(=O)N1CCC(Nc2cc(-n3ncc4cc(C#N)c(N)nc43)ncc2C(=O)N[C@H]2CC[C@H](CCN3CCN(c4ccc(C5CCC(=O)NC5=O)cc4)CC3)CC2)CC1` (some centres unmarked) [P-133], the “ALE THP1 HTRF YMIN” value is 6.9% and the EC50 turned out to be 0.01 µM.

For `C[C@H](C#N)Nc1cc(-n2ncc3cc(C#N)cnc32)ncc1C(=O)N[C@H]1CC[C@H](CCN2CCN(c3ccc(C4(C)CCC(=O)NC4=O)cc3)CC2)CC1` (some centres unmarked) [P-136], the “ALE THP1 HTRF YMIN” value came out at 7.4% and the EC50 was 0.006 µM.

As to `N#Cc1cnc2c(cnn2-c2cc(NC3CC3)c(-n3cc([C@H]4CC[C@H](CCN5CCN(c6ccc(C7CCC(=O)NC7=O)cc6)CC5)CC4)nn3)cn2)c1` (some centres unmarked) [P-154], the “ALE THP1 HTRF YMIN” value was 10.0% and the EC50 came to 0.022 µM.

Take `N#Cc1cnc2c(cnn2-c2cc(NC3CCCC3)c(-c3cn([C@H]4CC[C@H](CCN5CCN(c6ccc(C7CCC(=O)NC7=O)cc6)CC5)CC4)nn3)cn2)c1` (some centres unmarked) [P-54, 1-(4-(Cyclopentylamino)-5-(1-((1r,4r)-4-(2-(4-(4-(2,6-dioxopiperidin-3-yl)phenyl)piperazin-1-yl)ethyl)cyclohexyl)-1H-1,2,3-triazol-4-yl)pyridin-2-yl)-1H-pyrazolo[3,4-b]pyridine-5-carbonitrile]: the “ALE THP1 HTRF YMIN” value was found to be 14.6% and the EC50 turned out to be 0.031 µM.

For `N#Cc1cnc2c(cnn2-c2cc(NC3(C#N)CC3)c(C(=O)N[C@H]3CC[C@H](CCN4CCN(c5ccc(C6CCC(=O)NC6=O)cc5)CC4)CC3)cn2)c1` (some centres unmarked) [P-122], the “ALE THP1 HTRF YMIN” value is given as 10.4% and the EC50 came to 0.08 µM.
